Experimental data: patent US20230365542A1, “Selective Agonists of 5-HT2A Receptor and Methods of Use” (Yale University, priority 2020, published 2023)
Where two headings read alike, the source gives them in different places.

How the values were obtained:
5-HT2AR [1] = target: T1, 5-HT2AR (Homo sapiens, UniProt P28223); assay: 5-HT2AR binding affinity (Ki), Table 8
T1 construct: expressed in transfected cells; host or cells: Flp-In 293 T-Rex (tetracycline inducible)

5-HT2BR [2] = target: T2, 5-HT2BR (Homo sapiens, UniProt P41595); assay: Calcium flux assay (FLIPR, Fluo-4), 5-HT2BR stable cell line; format: cell-based; conditions: for 5-HT2BR Rmax ± S.E.M: value in parentheses
T2 construct: expressed in transfected cells; host or cells: Flp-In 293 T-Rex (tetracycline inducible)
T2 sequence (P41595 whole entry): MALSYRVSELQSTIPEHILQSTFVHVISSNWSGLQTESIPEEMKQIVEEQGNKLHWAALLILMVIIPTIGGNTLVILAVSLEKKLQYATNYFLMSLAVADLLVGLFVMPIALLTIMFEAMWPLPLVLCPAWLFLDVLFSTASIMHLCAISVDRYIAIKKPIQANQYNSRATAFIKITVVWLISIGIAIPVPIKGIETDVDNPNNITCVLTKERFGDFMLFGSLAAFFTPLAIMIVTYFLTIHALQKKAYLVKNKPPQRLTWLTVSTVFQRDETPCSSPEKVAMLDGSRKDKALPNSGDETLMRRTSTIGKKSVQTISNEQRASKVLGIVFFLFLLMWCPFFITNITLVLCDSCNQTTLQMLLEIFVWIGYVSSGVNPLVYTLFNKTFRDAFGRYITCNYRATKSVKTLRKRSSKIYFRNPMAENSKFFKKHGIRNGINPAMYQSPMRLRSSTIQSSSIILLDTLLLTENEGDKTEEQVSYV
Protocol: Stable cell lines for 5-HT2AR, 5-HT2BR and 5-HT2CR generated using the Flp-In 293 T-Rex Tetracycline inducible system (Invitrogen). Tetracycline-induced cells were seeded in 384-well poly-L-lysine plates at a density of 10,000 cells/well in DMEM containing 1% dialyzed FBS at least 16-24 hr before the calcium flux assay. On the day of the assay, the cells were incubated (20 ul/well) for 1 hr at 37° C. with Fluo-4 Direct dye (Invitrogen) reconstituted in FLIPR buffer (1×HBSS, 2.5 mM probenecid, and 20 mM HEPES, pH 7.4). After dye loading, cells were placed in a FLIPR^TETRA fluorescence imaging plate reader ([…]). Drug dilutions were prepared at 3× final concentration in drug buffer (1×HBSS, 20 mM HEPES, 0.1% BSA, 0.01% ascorbic acid, pH 7.4) and aliquoted into 384-well plates and placed in the FLIPR^TETRA for drug stimulation. The fluidics module and plate reader of the FLIPR^TETRA were programmed to read baseline fluorescence for 10s (1 read/s), then 10 ul of drug/well was added and read for 5 min (1 read/s). Fluorescence in each well was normalized to the average of the first 10 reads (i.e., baseline fluorescence). Then, the maximum-fold increase, which occurred within the first 60 s after drug addition, was determined and fold over baseline was plotted as a function of drug concentration. Data were normalized to % 5-HT stimulation and analyzed using “log(agonist) vs. response” in GraphPad Prism 9.0.

5-HT2AR [3] = target: T1, 5-HT2AR; assay: Calcium flux assay (FLIPR, Fluo-4), 5-HT2AR stable cell line; format: cell-based; conditions: for 5-HT2AR Rmax ± S.E.M: value in parentheses
5-HT2CR = target: T3, 5-HT2CR (Homo sapiens, UniProt P28335); assay: 5-HT2CR binding affinity (Ki), Table 8; conditions: read-out: 5-HT2CR Ki
T3 sequence (P28335 33-458): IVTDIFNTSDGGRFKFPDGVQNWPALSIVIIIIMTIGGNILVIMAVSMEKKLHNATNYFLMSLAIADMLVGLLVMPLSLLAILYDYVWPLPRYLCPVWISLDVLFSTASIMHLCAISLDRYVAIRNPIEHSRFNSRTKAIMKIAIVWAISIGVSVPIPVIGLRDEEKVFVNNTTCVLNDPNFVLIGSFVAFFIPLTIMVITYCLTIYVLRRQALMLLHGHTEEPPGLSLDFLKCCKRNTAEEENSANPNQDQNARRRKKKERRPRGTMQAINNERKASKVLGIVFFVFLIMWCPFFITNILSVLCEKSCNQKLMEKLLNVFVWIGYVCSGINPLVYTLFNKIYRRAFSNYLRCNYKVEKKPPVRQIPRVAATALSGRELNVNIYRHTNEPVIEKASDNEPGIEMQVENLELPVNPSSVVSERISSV

5-HT2BR [4] = target: T2, 5-HT2BR; assay: 5-HT2BR binding affinity (Ki), Table 8
[5] = bracketed value below EC50, read-out: 5-HT2AR pEC50 ± S.E.M (converted)
[6] = bracketed value below Ki, read-out: 5-HT2BR pKi ± S.E.M (converted)
[7] = bracketed value below EC50, read-out: 5-HT2BR pEC50 ± S.E.M (converted)

T1 sequence (P28223 whole entry): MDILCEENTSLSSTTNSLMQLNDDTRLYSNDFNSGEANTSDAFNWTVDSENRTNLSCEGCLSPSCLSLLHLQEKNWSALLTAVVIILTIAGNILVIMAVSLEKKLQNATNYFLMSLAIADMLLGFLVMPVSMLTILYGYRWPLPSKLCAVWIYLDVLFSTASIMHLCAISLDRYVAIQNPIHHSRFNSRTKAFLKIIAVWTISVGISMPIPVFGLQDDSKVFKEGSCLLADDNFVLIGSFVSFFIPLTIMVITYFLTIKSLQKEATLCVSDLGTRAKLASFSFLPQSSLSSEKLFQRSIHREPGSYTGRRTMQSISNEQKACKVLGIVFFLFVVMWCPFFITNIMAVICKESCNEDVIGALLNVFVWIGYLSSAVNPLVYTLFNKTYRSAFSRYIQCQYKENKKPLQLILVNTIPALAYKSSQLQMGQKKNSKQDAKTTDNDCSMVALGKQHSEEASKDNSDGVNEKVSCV

SMILES | Ki (5-HT2AR [1]; read-out: 5-HT2AR Ki) | 5-HT2BR EC50 (5-HT2BR [2]) | EC50 (5-HT2AR [3]; read-out: 5-HT2AR EC50) | Ki (5-HT2CR) | Ki (5-HT2BR [4]; read-out: 5-HT2BR Ki) | EC50 (5-HT2AR [3]; [5]) | 5-HT2AR Rmax ± S.E.M (5-HT2AR [3]) | Ki (5-HT2BR [4]; [6]) | EC50 (5-HT2BR [2]; [7]) | EC50 (5-HT2BR [2]; read-out: 5-HT2BR EC50) | 5-HT2BR Rmax ± S.E.M (5-HT2BR [2]) | Ki (5-HT2AR [1]; bracketed value below Ki, read-out: 5-HT2AR pKi ± S.E.M (converted))
C[C@@H]1C=C(c2c[nH]c3ncccc23)CN(C2COC2)C1 [compound 27, (R)-3-(5-methyl-1-(oxetan-3-yl)-1,2,5,6-tetrahydropyridin-3-yl)-1H-pyrrolo[2,3-b]pyridine] | > 10 µM | antagonist | > 10000 nM | > 10 µM | > 10000 nM | – | – | – | – | – | – | –
CCCCCN1CC(c2cncc(Cl)c2)=C[C@@H](C)C1 [Compound 9, 5′-chloro-5-methyl-1-pentyl-1,2,5,6-tetrahydro-3,3′-bipyridine] | > 10 µM | antagonist | 7630 nM | > 10 µM | 560 nM | 7760 nM | (40.2% | 550 nM | – | – | – | –
C[C@H]1C=C(c2c[nH]c3ncccc23)CN(CC2(C)COC2)C1 [compound 26, (S)-3-(5-methyl-1-((3-methyloxetan-3-yl)methyl)-1,2,5,6-tetrahydropyridin-3-yl)-1H-pyrrolo[2,3-b]pyridine] | > 10 µM | – | > 10000 nM | > 10 µM | 5830 nM | – | – | 5750 nM | 9120 nM | 9230 nM | (71.0% | –
CCCCN1CC(c2c[nH]c3ncccc23)=C[C@@H](C)C1 [Compound 21, 3-(1-butyl-5-methyl-1,2,5,6-tetrahydropyridin-3-yl)-1H-pyrrolo[2,3-b]pyridine] | 2.19 µM | antagonist | 2160 nM | > 10 µM | 2920 nM | – | (12.8% | 4570 nM | – | – | – | –
C[C@H]1C=C(c2cncc(Cl)c2)CN(CCC2CCCC2)C1 [Compound 20, 5′-chloro-1-(2-cyclopentylethyl)-5-methyl-1,2,5,6-tetrahydro-3,3′-bipyridine] | 4.36 µM | – | 540 nM | > 10 µM | – | – | (49.1% | 10.7 nM | – | 85 nM | (66.2% | –
C[C@@H]1C=C(c2cncc(Cl)c2)CN(CC2(O)COC2)C1 [Compound 7, 3-((5′-Chloro-5-methyl-5,6-dihydro-[3,3′-bipyridin]-1(2H)-yl)methyl)oxetan-3-ol] | > 10 µM | antagonist | > 10000 nM | > 10 µM | 960 nM | – | – | – | – | – | – | –
C[C@H]1C=C(c2c[nH]c3ncccc23)CN(C2COC2)C1 [compound 28, (S)-3-(5-methyl-1-(oxetan-3-yl)-1,2,5,6-tetrahydropyridin-3-yl)-1H-pyrrolo[2,3-b]pyridine] | > 10 µM | – | > 10000 nM | > 10 µM | 9890 nM | – | – | 9770 nM | – | 5240 nM | (48.1% | –
C[C@@H]1C=C(c2c[nH]c3ncccc23)CN(CC2(C)COC2)C1 [compound 25, (R)-3-(5-methyl-1-((3-methyloxetan-3-yl)methyl)-1,2,5,6-tetrahydropyridin-3-yl)-1H-pyrrolo[2,3-b]pyridine] | > 10 µM | – | 4000 nM | > 10 µM | 3290 nM | – | (29.5% | – | – | 6380 nM | (44.6% | –
CCCCN1CC(c2cncc(Cl)c2)=C[C@H](C)C1 [Compound 12, 1-butyl-5′-chloro-5-methyl-1,2,5,6-tetrahydro-3,3′-bipyridine] | 4.54 µM | – | – | > 10 µM | – | 427 nM | (53.0% | 7.08 nM | 22.9 nM | – | (69.6% | –
CCCN1CC(c2c[nH]c3ncccc23)=C[C@H](C)C1 [Compound 24, 3-(5-methyl-1-propyl-1,2,5,6-tetrahydropyridin-3-yl)-1H-pyrrolo[2,3-b]pyridine] | > 10 µM | antagonist | 860 nM | > 10 µM | 1670 nM | 871 nM | (14.8% | – | – | – | – | –
C[C@@H]1C=C(c2cncc(Cl)c2)CN(CCC2CCCC2)C1 [Compound 19, 5′-chloro-1-(2-cyclopentylethyl)-5-methyl-1,2,5,6-tetrahydro-3,3′-bipyridine] | > 10 µM | antagonist | 4310 nM | > 10 µM | 570 nM | – | (34.9% | – | – | – | – | –
C[C@@H]1C=C(c2cncc(Cl)c2)CN(C)C1 (stereo in doubt) [Compound 17, 5′-chloro-1,5-dimethyl-1,2,5,6-tetrahydro-3,3′-bipyridine] | 2.1 µM | – | – | > 10 µM | – | 347 nM | (14.9% | 30.2 nM | 26.9 nM | – | (42.1% | –
CCCN1CC(c2cncc(Cl)c2)=C[C@@H](C)C1 [Compound 15, 5′-Chloro-5-methyl-1-propyl-1,2,5,6-tetrahydro-3,3′-bipyridine] | > 10 µM | – | 5000 nM | > 10 µM | – | – | (42.1% | 148 nM | 123 nM | 130 nM | (50.9% | –
CCCN1CC(c2c[nH]c3ncccc23)=C[C@@H](C)C1 [Compound 23, 3-(5-methyl-1-propyl-1,2,5,6-tetrahydropyridin-3-yl)-1H-pyrrolo[2,3-b]pyridine] | 1.22 µM | antagonist | – | > 10 µM | 1640 nM | 245 nM | (65.6% | 1660 nM | – | – | – | 1.2 µM
C[C@H]1C=C(c2c[nH]c3ncccc23)CN(CCCc2cnn(C)c2)C1 [compound 44, (S)-3-(5-methyl-1-(3-(1-methyl-1H-pyrazol-4-yl)propyl)-1,2,5,6-tetrahydropyridin-3-yl)-1H-pyrrolo[2,3-b]pyridine] | 2.37 µM | – | – | > 10 µM | 960 nM | 269 nM | (40.2% | – | 355 nM | 360 nM | (56.2% | –
C[C@H]1C=C(c2c[nH]c3ncccc23)CN(C2CC2)C1 [compound 30, (S)-3-(1-cyclopropyl-5-methyl-1,2,5,6-tetrahydropyridin-3-yl)-1H-pyrrolo[2,3-b]pyridine] | > 10 µM | – | 3540 nM | > 10 µM | 2540 nM | – | (29.1% | – | – | 4360 nM | (58.3% | –
